Results from patent publication US20250091994A1, “RAS/RAF BINDING INHIBITOR COMPOUND” (NATIONAL UNIVERSITY CORPORATION KOBE UNIVERSITY, priority 2021, published 2025).

Key:
Type in all cases: cell-based
[1] = test system: small cell lung cancer cells SHP77 (K-RasG12V); assay: Cell growth inhibition, suspension cells SHP77; settings: Homo sapiens, 1 μM, 72 hours, read-out: SHP77 (KRasG12V) % inhibition at 1 μM
Outline: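 Suspension cells, 2 to 4×10^4 per well, cultured with compound in medium with 0.5% FBS (1% DMSO final) for 72 h at 37° C, 5% CO2. Viable cells counted with Cell Counting Reagent; inhibition calculated relative to controls.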

[2] = test system: large bowel cancer cells SW480 (K-RasG12V); assay: Cell growth inhibition, adherent cells SW480; settings: Homo sapiens, 72 hours, read-out: SW480 (KRasG12V) % inhibition at 10 μM
Description: The cell growth inhibitory activity of the compound of the present invention on human culture cells having active-type mutation in Ras was evaluated by the below-mentioned method using suspension cancer cells {acute lymphoblastic leukemia cells CCRF-CEM (K-RasG12D), promyelocytic leukemia cells HL60 (N-RasQ61L), acute lymphoblastic leukemia cells MOLT4 (N-RasG12C), and small cell lung cancer cells SHP77 (K-RasG12V)} and adherent cancer cells {large bowel cancer cells SW480 (K-RasG12V) and large bowel cancer cell SW620 (K-RasG12V)}.
(Case of adherent cells) The cells suspended in a medium containing 10% FBS (1 to 2×10^4 cells/well) were seeded on a 96-well plate, and were then cultured at 37° C. in the presence of […]. Thereafter, the medium was exchanged with a medium containing […], to which each compound solution (final DMSO concentration: […]) had been added, and the cells were then cultured at 37° C. in the presence of […] for 72 hours.
(§1) Thereafter, the number of viable cells was measured using Cell Counting Reagent (Nacalai Tesque) in accordance with the manufacturer's instructions. Inhibition by the test compound was determined according to the following equation: […]

[3] = test system: Vemurafenib-resistant malignant melanoma cells A375R (BRafV600E); assay: Cell growth inhibition, drug-resistant malignant melanoma A375R; settings: Homo sapiens, in the presence of 1 μM PLX (Vemurafenib), 72 hours
Description: (§2) The human malignant melanoma cell lines A375 and HT 144, each having BRafV600E mutation, were cultured in a medium containing 10% FBS at 37° C. in the presence of 5% CO2. At the time point in which the cells became confluent, 1 μM Vemurafenib, a BRaf inhibitor, was added to the medium, and the cells were then cultured in the presence of Vemurafenib for 1 month or more (during which the medium was exchanged every 1 week), so as to acquire Vemurafenib-resistant malignant melanoma cells A375R and HT 144R. The resulting resistant cells were suspended in a medium containing 10% FBS, and then seeded on a 96-well plate to an amount of 1 to 2×10^4 cells/well. The cells were cultured at 37° C. in the presence of 5% CO2 overnight. Thereafter, the medium was exchanged with a medium containing 0.5% FBS, to which each compound solution (final DMSO concentration: 1%) and 1 μM Vemurafenib had been added, and the cells were then cultured at 37° C. in the presence of 5% CO2 for 72 hours.
as §1
(§3) Hereafter, Inhibition (%) by 3.3 μM compound is shown.

[4] = test system: Vemurafenib-resistant malignant melanoma cells HT 144R (BRafV600E); assay: Cell growth inhibition, drug-resistant malignant melanoma HT144R; settings: Homo sapiens, in the presence of 1 μM PLX (Vemurafenib), 72 hours
Description: as §2, §1, §3

[5] = test system: phosphorylated MEK (pMEK) in HL60 cells; assay: Ras-Raf signaling inhibition at culture cell level, pMEK; settings: Homo sapiens, HL-60; HL60 (N-RasQ61L), 1 μM test compound, 3 hours
Description: (§4) The Ras-Raf signaling inhibitory activity of the compound of the present invention at a culture cell level was evaluated by the following method.
(§5) The HL60 cells described in Test Example 2 suspended in a medium containing 0.5% (v/v) FBS with each compound solution (final DMSO concentration: 1%), were seeded on a 12-well plate (2 to 4×10^5 cells/well), and the resulting mixture was then cultured at 37° C. in the presence of 5% CO2 for 3 hours.
(§6) After completion of the cell culture, proteins were extracted from the cells, using RIPA Buffer (Nacalai Tesque) containing a mixture of protease inhibitors and phosphatase inhibitors. An equivalent amount of protein was separated by standard SDS-PAGE and was then transferred onto a PVDF membrane. In order to detect the activation (phosphorylation) of MEK and ERK, downstream molecules of the Ras-Raf signaling pathway, the membrane was probed with 1000-fold diluted primary antibodies {phosphorylated MEK (pMEK: #9121), phosphorylated ERK (pERK: #9101), total MEK (tMEK: #9122), and total ERK (tERK: 9102); all from Cell signaling}, and then with a 1000-fold diluted horseradish peroxidase-labeled secondary antibody against rabbit immunoglobulin G. The immunoreactive signals were colored with EzWestLumi One (ATTO), and were then detected by Fusion FX (Vilber). Signal intensity was quantified by pixel counting. Inhibition by the test compound was determined according to the following equation: […]

[6] = test system: phosphorylated ERK (pERK) in HL60 cells; assay: Ras-Raf signaling inhibition at culture cell level, pERK; settings: Homo sapiens, HL-60; HL60 (N-RasQ61L), 1 μM test compound, 3 hours
Description: as §4, §5, §6

Compound: CC(=O)N1/C(=C\c2nc3cc(C(=O)N4CCOCC4)ccc3s2)C(=O)c2ccccc21 [Example 47, (Z)-1-acetyl-2-((5-(morpholine-4-carbonyl)benzo [d]thiazol-2-yl)-methylene)-indolin-3-one]
- inhibition at 1 µM [1]: 61%
- inhibition at 10 µM [2]: 51%
- inhibition at 3.3 µM [3]: 90%
- inhibition at 3.3 µM [4]: 92%
- inhibition at 1 µM [5]: 88%
- inhibition at 1 µM [6]: 94%
